These results are taken from article PMC12537693, “3-Hydroxytyrosol as a phenolic cholinesterase inhibitor with antiamnesic activity: a multimethodological study of selected plant phenolics” (Frontiers in Pharmacology, 2025).

For one test, the target named is horse serum BChE (Equus caballus, UniProt P81908). As to the kind of experiment: biochemical. The following applies: n = 3; for Enzyme inhibition (% ± SD) at 10 mM, BChE / inhibition at 10000 µM: at 10 mM; for inhibition at 10000 µM: read-out: Enzyme inhibition (% ± SD) at 10 mM, BChE. Type of test: biochemical.
Sequence of horse serum BChE (P81908 whole entry): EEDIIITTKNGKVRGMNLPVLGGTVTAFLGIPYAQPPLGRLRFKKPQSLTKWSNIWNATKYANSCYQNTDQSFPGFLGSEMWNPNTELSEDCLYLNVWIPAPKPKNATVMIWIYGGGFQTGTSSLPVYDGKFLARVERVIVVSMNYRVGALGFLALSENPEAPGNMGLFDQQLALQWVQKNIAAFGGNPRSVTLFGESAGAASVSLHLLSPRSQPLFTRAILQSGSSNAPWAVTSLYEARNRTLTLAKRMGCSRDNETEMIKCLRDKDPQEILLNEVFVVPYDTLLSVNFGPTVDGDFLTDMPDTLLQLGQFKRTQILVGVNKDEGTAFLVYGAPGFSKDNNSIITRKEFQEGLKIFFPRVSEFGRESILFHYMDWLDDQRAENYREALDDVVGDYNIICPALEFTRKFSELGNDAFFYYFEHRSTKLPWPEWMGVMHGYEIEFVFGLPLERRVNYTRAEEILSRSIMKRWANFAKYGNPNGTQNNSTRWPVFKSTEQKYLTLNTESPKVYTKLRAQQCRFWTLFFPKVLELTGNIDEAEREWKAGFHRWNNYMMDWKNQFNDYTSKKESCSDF
In test [1] the test system is scopolamine-induced amnesic mice. In words: Passive avoidance test in scopolamine-induced amnesic mice. Format: in vivo.

The structures appear in SMILES notation.

With `O=c1cc(-c2ccc(O)c(-c3c(O)cc(O)c4c(=O)cc(-c5ccc(O)cc5)oc34)c2)oc2cc(O)cc(O)c12` [Amentoflavone], at horse serum BChE, the “Enzyme inhibition (% ± SD) at 10 mM, BChE” value (“Enzyme inhibition (% ± SD)” below) is recorded as “no inhibition”. Moreover, at horse serum BChE (± SD), the inhibition (in general, the drop in the measured response relative to a control, in per cent) at 10000 µM is below 0%.

For the molecule `O=c1cc(-c2ccc(O)cc2)oc2cc(O)cc(O)c12` [Apigenin], the inhibition at 10000 µM at horse serum BChE (± SD) was below 0%.

For `O=C(/C=C/c1ccc(O)c(O)c1)O[C@@H]1C[C@](O)(C(=O)O)C[C@@H](O)[C@H]1O` [Chlorogenic acid], the inhibition at 10000 µM on horse serum BChE (± SD) came to 25.4 ± 1.72%.

Take `O=c1oc2c(O)c(O)cc3c(=O)oc4c(O)c(O)cc1c4c23` [Ellagic acid]: the “Enzyme inhibition (% ± SD)” value on horse serum BChE is on record as “no inhibition”. Moreover, the inhibition at 10000 µM on horse serum BChE (± SD) is below 0%.

As to `O=c1c(O)c(-c2ccc(O)c(O)c2)oc2cc(O)ccc12` [Fisetin], on horse serum BChE (± SD), the inhibition at 10000 µM worked out at 76.2 ± 2.48% and half-maximal inhibition (IC50) required 9.62 mM.

For `O=C(O)c1cc(O)c(O)c(O)c1` [Gallic acid], the inhibition at 10000 µM on horse serum BChE (± SD) is 84.4 ± 2.25%. In addition, the “Mean latency time (min) ± SEM (2nd day)” value in test [1] (20 mg/kg i.p., scopolamine 1 mg/kg i.p. 30 min later, 24 h after scopolamine, cutoff 9 min) is 6.76 ± 1.11 min. In test [1] (acquisition day, before treatment, group given 20 mg/kg i.p., n = 8), the “Mean latency time (min) ± SEM (1st day)” value was determined as 0.29 ± 0.03 min.

In the case of `O=c1c(-c2ccc(O)cc2)coc2cc(O)cc(O)c12` [Genistein], the inhibition at 10000 µM on horse serum BChE (± SD) was below 0%.

For the molecule `O=c1c(O)c(-c2ccc(O)cc2)oc2cc(O)cc(O)c12` [Kaempferol], the inhibition at 10000 µM at horse serum BChE (± SD) is below 0%.

`O=c1cc(-c2ccc(O)c(O)c2)oc2cc(O)cc(O)c12` [Luteolin]: the “Enzyme inhibition (% ± SD)” value on horse serum BChE is reported as “no inhibition”. Besides, the inhibition at 10000 µM on horse serum BChE (± SD) is below 0%.

Take `Oc1ccc(-c2[o+]c3cc(O)cc(O)c3cc2O)cc1` [Pelargonidin]: the inhibition at 10000 µM at horse serum BChE (± SD) is 25.3 ± 4.13%.

`O=c1c(O)c(-c2ccc(O)c(O)c2)oc2cc(O)cc(O)c12` [Quercetin]: the inhibition at 10000 µM on horse serum BChE (± SD) came to 99.4 ± 0.76%.

As for `COc1cc(C(=O)O)ccc1O` [Vanillic acid], the inhibition at 10000 µM at horse serum BChE (± SD) is 35.1 ± 3.21%.
